Test results as given in the supplement of paper PMC11451515.

Tests used:
SEM cells [1] = test: AUC of viability dose-response curve (% viability x log10 dose units); higher = less sensitive; conditions: 48 h
Summary of the method: (§1)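 Area under the curve was integrated by trapezoidal rule from a log-logistic fit of normalised viability, with curves exceeding full viability scaled and quality-control failures removed. The fit had four parameters over log10 doses. Viability came from CellTiter-Glo One luminescence, normalised per plate to DMSO and cell-free wells, after leukemia cells adapted to each medium (500 or 1000 cells/well, 1536-well plates) were exposed to library compounds in DMSO for 48 h at 37°C. The 11 threefold doses ran from 47 μM to 0.79 nM.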

P12-Ichikawa [2] = test: as above; conditions: 48 h
Summary of the method: as §1

NOMO1 [3] = test: as above; conditions: 48 h
Summary of the method: as §1

SEM cells [4] = test: cell viability relative to DMSO control; higher = less cytotoxic; conditions: 48 h
Summary of the method: (§2)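 Viability was expressed as a per-plate percentage of DMSO wells, with cell-free wells as background. Leukemia cells (NOMO1 or SEM at 500 cells/well, P12-Ichikawa at 1000 cells/well) were adapted for at least four passages in each medium and seeded in 1536-well plates (5 μl). Library compounds in DMSO were pin-dosed over an 11-point threefold series from 47 μM to 0.79 nM, and CellTiter-Glo One luminescence was read after 48 h at 37°C.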

P12-Ichikawa [5] = test: as above; conditions: 48 h
Summary of the method: as §2

NOMO1 [6] = test: as above; conditions: HPLM + 10% dialyzed FBS, 48 h
Summary of the method: as §2

Nc1cc(N2CCCCC2)nc(N)[n+]1[O-]
AUC of viability dose-response curve
Conditions	NOMO1 [3]	P12-Ichikawa [2]	SEM cells [1]
HPLM + 10% dialyzed FBS	451	469	451
RPMI 5 mM glucose + 10% FBS	461	468	451
RPMI 5 mM glucose + 10% dialyzed FBS	465	475	455

cell viability [%]
Conditions	HPLM + 10% dialyzed FBS	RPMI 5 mM glucose + 10% FBS	RPMI 5 mM glucose + 10% dialyzed FBS
P12-Ichikawa [5], 0.000781 µM	114	125	113
P12-Ichikawa [5], 0.00234 µM	125	128	124
P12-Ichikawa [5], 0.00702 µM	122	121	111
P12-Ichikawa [5], 0.0211 µM	118	134	125
P12-Ichikawa [5], 0.0632 µM	120	127	121
P12-Ichikawa [5], 0.19 µM	127	123	114
P12-Ichikawa [5], 0.569 µM	131	131	125
P12-Ichikawa [5], 1.71 µM	125	127	129
P12-Ichikawa [5], 5.12 µM	122	131	121
P12-Ichikawa [5], 15.4 µM	119	134	113
P12-Ichikawa [5], 46.1 µM	122	127	117
SEM cells [4], 0.000781 µM	98.9	100	115
SEM cells [4], 0.00234 µM	122	125	132
SEM cells [4], 0.00702 µM	115	108	114
SEM cells [4], 0.0211 µM	112	110	116
SEM cells [4], 0.0632 µM	124	106	120
SEM cells [4], 0.19 µM	120	116	129
SEM cells [4], 0.569 µM	121	121	108
SEM cells [4], 1.71 µM	75.6	78.9	79.8
SEM cells [4], 5.12 µM	124	122	135
SEM cells [4], 15.4 µM	61.5	58.2	83.9
SEM cells [4], 46.1 µM	127	120	133

N#Cc1c(N(CC(=O)[O-])CC(=O)[O-])sc(C(=O)[O-])c1CC(=O)[O-].O.O.O.O.O.O.O.[Sr+2].[Sr+2]
Conditions	AUC of viability dose-response curve	cell viability [%]
NOMO1 [3], HPLM + 10% dialyzed FBS	467	–
NOMO1 [3], RPMI 5 mM glucose + 10% FBS	472	–
NOMO1 [3], RPMI 5 mM glucose + 10% dialyzed FBS	472	–
NOMO1 [6], 0.000781 µM	–	113
NOMO1 [6], 0.00234 µM	–	123
NOMO1 [6], 0.00702 µM	–	150
NOMO1 [6], 0.0211 µM	–	130
NOMO1 [6], 0.0632 µM	–	137
NOMO1 [6], 0.19 µM	–	129
NOMO1 [6], 0.569 µM	–	148
NOMO1 [6], 1.71 µM	–	123
NOMO1 [6], 5.12 µM	–	138
NOMO1 [6], 15.4 µM	–	124
NOMO1 [6], 46.1 µM	–	112
P12-Ichikawa [2], HPLM + 10% dialyzed FBS	463	–
P12-Ichikawa [2], RPMI 5 mM glucose + 10% FBS	458	–
P12-Ichikawa [2], RPMI 5 mM glucose + 10% dialyzed FBS	456	–
SEM cells [1], HPLM + 10% dialyzed FBS	462	–
SEM cells [1], RPMI 5 mM glucose + 10% FBS	467	–
SEM cells [1], RPMI 5 mM glucose + 10% dialyzed FBS	449	–

cell viability [%], SEM cells [4]
Conditions	HPLM + 10% dialyzed FBS	RPMI 5 mM glucose + 10% FBS	RPMI 5 mM glucose + 10% dialyzed FBS
0.000781 µM	111	117	111
0.00234 µM	113	124	107
0.00702 µM	122	131	123
0.0211 µM	111	138	121
0.0632 µM	117	149	129
0.19 µM	130	146	131
0.569 µM	127	153	134
1.71 µM	132	132	128
5.12 µM	144	143	112
15.4 µM	103	124	89.3
46.1 µM	87.9	102	67.9
